According to ChEMBL document CHEMBL4417633, “Inhibitory polypeptides specific to WNT inhibitors” (2017):
The source made the active and inactive calls. The calls are words filed in the database; no cut-off is given here. Where a SMILES comes first, the peptide text is derived from it.

Assays:
[1] = target: T1, Dickkopf-related protein 1 (Homo sapiens) (UniProt O94907); assay: Inhibition of biotin-labeled human recombinant DKK1 assessed as reduction in DKK1 interaction with LRP-6/Fc incubated overnight by chemiluminescence based Alpha-screen assay
T1 sequence (whole entry): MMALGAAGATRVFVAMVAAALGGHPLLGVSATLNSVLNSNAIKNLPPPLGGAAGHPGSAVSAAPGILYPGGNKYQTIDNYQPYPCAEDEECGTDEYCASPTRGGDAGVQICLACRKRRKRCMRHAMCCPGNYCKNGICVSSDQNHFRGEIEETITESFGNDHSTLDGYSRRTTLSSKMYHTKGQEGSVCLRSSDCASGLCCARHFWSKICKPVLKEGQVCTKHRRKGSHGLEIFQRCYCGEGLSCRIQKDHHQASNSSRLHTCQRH

[2] = target: T2, Dickkopf WNT-signaling pathway inhibitor 1 (Rattus norvegicus) (UniProt A6I0Z0); assay: Inhibition of biotin-labeled rat recombinant DKK1 assessed as reduction in DKK1 interaction with LRP-6/Fc incubated overnight by chemiluminescence based Alpha-screen assay
T2 sequence (whole entry): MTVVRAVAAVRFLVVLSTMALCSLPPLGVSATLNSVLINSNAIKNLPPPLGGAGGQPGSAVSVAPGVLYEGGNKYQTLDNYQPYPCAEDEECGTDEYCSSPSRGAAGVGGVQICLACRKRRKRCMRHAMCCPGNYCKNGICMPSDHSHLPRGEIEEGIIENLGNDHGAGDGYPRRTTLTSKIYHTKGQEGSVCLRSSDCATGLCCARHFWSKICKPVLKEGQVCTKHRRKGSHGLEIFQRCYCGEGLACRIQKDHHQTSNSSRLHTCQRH

[3] = target: T3, Dickkopf-related protein 1 (Homo sapiens, UniProt O94907); assay: Inhibition of human DKK1 in MC3T3E1/TetON-Wnt1/STF-Luc#5 cells assessed as DKK1 neutralizing activity by Wnt1-induced TCF/LEF luciferase reporter gene assay
T3 sequence (O94907 whole entry): T1 sequence (whole entry)

Row | Structure (SMILES) | inhibition [1] | inhibition [2] | IC50 [3]
1 | CC[C@H](C)[C@H](NC(=O)[C@H](CS)NC(=O)[C@H](CC(=O)O)NC(=O)[C@@H]1CCCN1C(=O)[C@H](Cc1ccccc1)NC(=O)CNC(=O)[C@H](CC(=O)O)NC(=O)[C@H](CS)NC(=O)[C@H](CCCNC(=N)N)NC(=O)[C@H](Cc1c[nH]c2ccccc12)NC(=O)[C@H](CCC(=O)O)NC(=O)[C@H](CCSC)NC(=O)[C@@H]1CCCN1C(=O)[C@H](Cc1ccc(O)cc1)NC(=O)[C@H](CS)NC(=O)[C@H](Cc1cnc[nH]1)NC(=O)[C@@H]1CCCN1C(=O)[C@H](Cc1cnc[nH]1)NC(=O)[C@H](CC(N)=O)NC(=O)[C@H](CCCNC(=N)N)NC(=O)[C@H](CS)NC(=O)[C@@H]1CCCN1C(=O)[C@H](Cc1ccccc1)NC(=O)[C@H](Cc1ccc(O)cc1)NC(=O)[C@@H](NC(=O)[C@H](C)NC(=O)[C@@H]1CCCN1C(=O)[C@@H](N)CS)[C@@H](C)O)C(=O)N[C@@H](CC(=O)O)C(=O)N[C@@H](CCC(=O)O)C(=O)N[C@@H](CO)C(=O)N[C@@H](CC(=O)O)C(=O)N[C@@H](CCC(=O)O)C(=O)N[C@@H](CCSC)C(=O)NCC(=O)N[C@@H](CS)C(=O)NCC(=O)NCC(=O)NCC(=O)NCC(=O)O (H-CPATYFPCRNHPHCYPMEWRCDGFPDCIDESDEMGCGGGG-OH) | Active | Active | 0.8 to 3 nM
2 | CC[C@H](C)[C@H](NC(=O)[C@H](CS)NC(=O)[C@H](CC(=O)O)NC(=O)[C@@H]1CCCN1C(=O)[C@H](Cc1ccccc1)NC(=O)CNC(=O)[C@H](CC(=O)O)NC(=O)[C@H](CS)NC(=O)[C@H](CCCNC(=N)N)NC(=O)[C@H](Cc1c[nH]c2ccccc12)NC(=O)[C@H](CCC(=O)O)NC(=O)[C@H](CCSC)NC(=O)[C@@H]1CCCN1C(=O)[C@H](Cc1ccc(O)cc1)NC(=O)[C@H](CS)NC(=O)[C@H](Cc1cnc[nH]1)NC(=O)[C@H](CCCCN)NC(=O)[C@H](Cc1ccc(O)cc1)NC(=O)[C@H](CCC(=O)O)NC(=O)[C@H](CCCNC(=N)N)NC(=O)[C@H](CS)NC(=O)[C@H](CCC(N)=O)NC(=O)[C@H](Cc1ccccc1)NC(=O)[C@H](Cc1ccc(O)cc1)NC(=O)[C@H](CO)NC(=O)[C@H](CCC(=O)O)NC(=O)[C@@H]1CCCN1C(=O)[C@@H](N)CS)C(=O)N[C@@H](CC(=O)O)C(=O)N[C@@H](CO)C(=O)N[C@@H](CO)C(=O)N[C@@H](CC(=O)O)C(=O)N[C@@H](CCC(=O)O)C(=O)N[C@H](C(=O)N[C@@H](CC(=O)O)C(=O)N[C@@H](CS)C(=O)NCC(=O)NCC(=O)NCC(=O)NCC(=O)O)[C@@H](C)O (H-CPESYFQCREYKHCYPMEWRCDGFPDCIDSSDETDCGGGG-OH) | Active | Active | 0.8 to 3 nM
3 | CSCC[C@H](NC(=O)[C@@H]1CCCN1C(=O)[C@H](Cc1ccc(O)cc1)NC(=O)[C@H](CS)NC(=O)[C@H](Cc1cnc[nH]1)NC(=O)[C@@H]1CCCN1C(=O)[C@H](Cc1cnc[nH]1)NC(=O)[C@H](CC(N)=O)NC(=O)[C@H](CCCNC(=N)N)NC(=O)[C@H](CS)NC(=O)[C@H](CCC(N)=O)NC(=O)[C@H](Cc1ccccc1)NC(=O)[C@H](Cc1ccc(O)cc1)NC(=O)[C@H](CO)NC(=O)[C@H](CCC(=O)O)NC(=O)[C@@H]1CCCN1C(=O)[C@@H](N)CS)C(=O)N[C@@H](CCC(=O)O)C(=O)N[C@@H](Cc1c[nH]c2ccccc12)C(=O)N[C@@H](CCCNC(=N)N)C(=O)N[C@@H](CS)C(=O)N[C@@H](CC(=O)O)C(=O)NCC(=O)N[C@@H](Cc1ccccc1)C(=O)N[C@@H](CCC(=O)O)C(=O)N[C@@H](CC(=O)O)C(=O)N[C@@H](CS)C(=O)N[C@H](C(=O)N[C@@H](CC(=O)O)C(=O)NCC(=O)N[C@@H](CO)C(=O)N[C@@H](CC(=O)O)C(=O)N[C@@H](CCC(=O)O)C(=O)N[C@@H](CC(C)C)C(=O)N[C@@H](CC(=O)O)C(=O)N[C@@H](CS)C(=O)NCC(=O)NCC(=O)NCC(=O)NCC(=O)O)C(C)C (H-CPESYFQCRNHPHCYPMEWRCDGFEDCVDGSDELDCGGGG-OH) | Active | Active | 0.8 to 3 nM
4 | CSCC[C@H](NC(=O)[C@@H]1CCCN1C(=O)[C@H](Cc1ccc(O)cc1)NC(=O)[C@H](CS)NC(=O)[C@H](Cc1cnc[nH]1)NC(=O)[C@@H]1CCCN1C(=O)[C@H](Cc1cnc[nH]1)NC(=O)[C@H](CC(N)=O)NC(=O)[C@H](CCCNC(=N)N)NC(=O)[C@H](CS)NC(=O)[C@H](CCC(N)=O)NC(=O)[C@H](Cc1ccccc1)NC(=O)[C@H](Cc1ccc(O)cc1)NC(=O)[C@H](CO)NC(=O)[C@H](CCC(=O)O)NC(=O)[C@@H]1CCCN1C(=O)[C@@H](N)CS)C(=O)N[C@@H](CCC(=O)O)C(=O)N[C@@H](Cc1c[nH]c2ccccc12)C(=O)N[C@@H](CCCNC(=N)N)C(=O)N[C@@H](CS)C(=O)N[C@@H](CC(=O)O)C(=O)NCC(=O)N[C@@H](Cc1ccccc1)C(=O)N1CCC[C@H]1C(=O)N[C@@H](CC(=O)O)C(=O)N[C@@H](CS)C(=O)N[C@H](C(=O)N[C@@H](CC(=O)O)C(=O)NCC(=O)N[C@@H](CO)C(=O)N[C@@H](CC(=O)O)C(=O)N[C@@H](CCC(=O)O)C(=O)N[C@@H](CC(C)C)C(=O)N[C@@H](CC(=O)O)C(=O)N[C@@H](CS)C(=O)NCC(=O)NCC(=O)NCC(=O)NCC(=O)O)C(C)C (H-CPESYFQCRNHPHCYPMEWRCDGFPDCVDGSDELDCGGGG-OH) | Active | Active | 0.8 to 3 nM
5 | CC[C@H](C)[C@H](NC(=O)[C@H](CS)NC(=O)[C@H](CC(=O)O)NC(=O)[C@@H]1CCCN1C(=O)[C@H](Cc1ccccc1)NC(=O)CNC(=O)[C@H](CC(=O)O)NC(=O)[C@H](CS)NC(=O)[C@H](CCCNC(=N)N)NC(=O)[C@H](Cc1c[nH]c2ccccc12)NC(=O)[C@H](CCC(=O)O)NC(=O)[C@H](CCSC)NC(=O)[C@@H]1CCCN1C(=O)[C@H](Cc1ccc(O)cc1)NC(=O)[C@H](CS)NC(=O)[C@H](Cc1cnc[nH]1)NC(=O)[C@@H]1CCCN1C(=O)[C@H](Cc1cnc[nH]1)NC(=O)[C@H](CC(N)=O)NC(=O)[C@H](CCCNC(=N)N)NC(=O)[C@H](CS)NC(=O)[C@H](CCC(N)=O)NC(=O)[C@H](Cc1ccccc1)NC(=O)[C@H](Cc1ccc(O)cc1)NC(=O)[C@H](CO)NC(=O)[C@@H](NC(=O)[C@@H]1CCCN1C(=O)[C@@H](N)CS)C(C)C)C(=O)N[C@@H](CC(=O)O)C(=O)NCC(=O)N[C@@H](CO)C(=O)N[C@@H](CC(=O)O)C(=O)N[C@@H](CCC(=O)O)C(=O)N[C@@H](CCC(=O)O)C(=O)NCC(=O)N[C@@H](CS)C(=O)NCC(=O)NCC(=O)NCC(=O)NCC(=O)O (H-CPVSYFQCRNHPHCYPMEWRCDGFPDCIDGSDEEGCGGGG-OH) | Active | Active | 0.8 to 3 nM
6 | CSCC[C@H](NC(=O)[C@@H]1CCCN1C(=O)[C@H](Cc1ccc(O)cc1)NC(=O)[C@H](CS)NC(=O)[C@H](Cc1cnc[nH]1)NC(=O)[C@@H]1CCCN1C(=O)[C@H](Cc1cnc[nH]1)NC(=O)[C@H](CC(N)=O)NC(=O)[C@H](CCCNC(=N)N)NC(=O)[C@H](CS)NC(=O)[C@H](CCC(N)=O)NC(=O)[C@H](Cc1ccccc1)NC(=O)[C@H](Cc1ccc(O)cc1)NC(=O)[C@H](CO)NC(=O)[C@@H](NC(=O)[C@@H]1CCCN1C(=O)[C@@H](N)CS)C(C)C)C(=O)N[C@@H](CCC(=O)O)C(=O)N[C@@H](Cc1c[nH]c2ccccc12)C(=O)N[C@@H](CCCNC(=N)N)C(=O)N[C@@H](CS)C(=O)N[C@@H](CC(=O)O)C(=O)NCC(=O)N[C@@H](Cc1ccccc1)C(=O)N1CCC[C@H]1C(=O)N[C@@H](CC(=O)O)C(=O)N[C@@H](CS)C(=O)N[C@@H](CC(C)C)C(=O)N[C@@H](CC(=O)O)C(=O)N[C@@H](CCC(=O)O)C(=O)N[C@@H](CO)C(=O)N[C@@H](CC(=O)O)C(=O)N[C@@H](CCC(=O)O)C(=O)N[C@@H](CCCCN)C(=O)NCC(=O)N[C@@H](CS)C(=O)NCC(=O)NCC(=O)NCC(=O)NCC(=O)O (H-CPVSYFQCRNHPHCYPMEWRCDGFPDCLDESDEKGCGGGG-OH) | Active | Active | 0.8 to 3 nM
7 | CC[C@H](C)[C@H](NC(=O)[C@H](CCC(=O)O)NC(=O)[C@H](CC(=O)O)NC(=O)[C@H](CO)NC(=O)[C@H](C)NC(=O)[C@H](CC(=O)O)NC(=O)[C@@H](NC(=O)[C@H](CS)NC(=O)[C@H](CC(=O)O)NC(=O)[C@@H]1CCCN1C(=O)[C@H](Cc1ccccc1)NC(=O)CNC(=O)[C@H](CC(=O)O)NC(=O)[C@H](CS)NC(=O)[C@H](CCCNC(=N)N)NC(=O)[C@H](Cc1c[nH]c2ccccc12)NC(=O)[C@H](CCC(=O)O)NC(=O)[C@H](CCSC)NC(=O)[C@@H]1CCCN1C(=O)[C@H](Cc1ccc(O)cc1)NC(=O)[C@H](CS)NC(=O)[C@H](Cc1cnc[nH]1)NC(=O)[C@@H]1CCCN1C(=O)[C@H](Cc1cnc[nH]1)NC(=O)[C@H](CC(N)=O)NC(=O)[C@H](CCCNC(=N)N)NC(=O)[C@H](CS)NC(=O)[C@H](CCC(N)=O)NC(=O)[C@H](Cc1ccccc1)NC(=O)[C@H](Cc1ccc(O)cc1)NC(=O)[C@H](CO)NC(=O)[C@@H](NC(=O)[C@@H]1CCCN1C(=O)[C@@H](N)CS)C(C)C)C(C)C)C(=O)NCC(=O)N[C@@H](CS)C(=O)NCC(=O)NCC(=O)NCC(=O)NCC(=O)O (H-CPVSYFQCRNHPHCYPMEWRCDGFPDCVDASDEIGCGGGG-OH) | Active | Active | 0.8 to 3 nM
